Test results from paper PMC6982702, “Extensive Structure Modification on Luteolin-Cinnamic Acid Conjugates Leading to BACE1 Inhibitors with Optimal Pharmacological Properties” (Molecules, 2019).
Values joined by “and” are separate entries in the source; they are usually repeats but may differ in a detail not shown here. Equal values may be shown once. Read-outs that look alike come from different tables or passages of the source.

Key:
[1] = system: Aβ-38, Aβ-40, Aβ-42 in HEK293 cells stably overexpressing human APP695; test: Inhibition of Aβ production in APP overexpressed cells (V-Plex Aβ Peptide Panel immunoassay); type: cell-based; conditions: for Aβ levels: higher concentrations (10, 25, and 50 µM), 23 h; for Aβ levels / Aβ-42 levels: DMSO = 100%
Description: To assess the cellular BACE1 inhibitory activity of the conjugates, 7a–d, 7i, and 7k were incubated in APP overexpressing HEK293 cells and their inhibition on the three main Aβ species Aβ-38, Aβ-40, and Aβ-42—the main amyloidogenic peptides produced by BACE1 cleavage of APP peptide—was measured by an ELISA-like immunoassay method. Aβ levels were normalized to the protein concentration in the lysate in order to rule out differences in total cell number per well of the culture plate. Additionally, the normalized Aβ level was set to 100% for the DMSO-treated control.
HEK293 cells stably overexpressing human APP695 were plated in a poly-D-lysine-coated 96-well plates and grown to a density of 80–90%. Compounds were dissolved in DMSO to make a 10 mM stock solution and diluted in DMEM complete medium to the final concentrations: 0.1, 1.0, 5.0, 10.0, 25.0, and 50.0 µM. DMSO was used at a 1:200 dilution as a negative control and a commercially available BACE1 inhibitor (C3, also known as BACE inhibitor IV) as a positive control. After 23 h of incubation, the cell supernatants were directly used for measurement in the V-Plex Aβ Peptide Panel 1 (6E10) Kit from Meso Scale Diagnostics (Rockville, MD, USA) for measuring Aβ38, −40, and −42 simultaneously. Cells were washed with PBS and lysed in Triton X100 lysis buffer for subsequent protein concentration (BCA) measurement.

BACE1 [2] = target: T1, BACE1 (Homo sapiens, UniProt P56817); test: In vitro BACE1 FRET enzyme assay; type: biochemical; conditions: for inhibition at 10 µM: read-out: Inhibition Rate at 10 μM (%); for selectivity on BACE1 over BACE2 and renin: from IC50 values of Table 6
T1 construct: purchased PanVera Co. (Invitrogen, USA)
Description: The BACE1 FRET assay kit was purchased from the PanVera Co. (Invitrogen, USA). The assay was carried out according to the supplied manual with modifications. […] The fluorescence intensity was measured with a TECAN infinite 200 microplate reader for 60 min at 25 °C in the dark. […] The percent inhibition (%) was obtained by the following equation: Inhibition % = (1 −SS/SC) × 100%, where SC is the slope of fluorescence change of the control (enzyme, buffer, and substrate) during 60 min, and SS is the slope of fluorescence change of the tested samples (enzyme, sample solution, and substrate) during 60 min of measurement. IC50 values were calculated from the nonlinear curve fitting of percentage inhibition against inhibitor concentration using Prism 3.0 software (GraphPad Software, San Diego, CA, USA).

MTT cytotoxicity assay = type: cell-based; conditions: human, 24 h exposure
Description: It is crucial for the BACE1 inhibitors to exert their activities at sub-toxic concentration, and thus their cytotoxicity was assessed in HEK293 cells by 3-[4,5-dimethylthiazol-2-yl]-2,5-diphenyl-tetrazolium bromide (MTT) assays (Table 5). […] Unfortunately, there was no obvious relationship between the structures and their cytotoxicity.
The cytotoxicity was examined by using 3-[4,5-dimethylthiazol-2-yl]-2,5-diphenyl-tetrazolium bromide (MTT) assay. HEK293T cells were seeded with complete DMEM into 96-well plates ([…], 100 µL/well), incubated at 37 °C in a humidified atmosphere with 5% CO2 for 24 h. All the compounds were diluted with the phenol red-free DMEM at a specific concentration. After 24 h of exposure to different concentrations of compound, the supernatant was removed and then 20% (v/v) MTT (5 mg/mL) diluted with fresh culture medium was added into each well and incubated for 4 h. Cells were lysed with 100 μL dimethyl sulfoxide (DMSO) and shaken for 10 min at room temperature. The absorbance in each well was detected at a wavelength of 490 nm using a Universal Microplate Reader (ELX 800 lv, BIO-TEK Instruments, Inc., Winooski, VT, USA).

Renin = target: T2, Renin (Homo sapiens, UniProt P00797); test: Enzyme selectivity: renin inhibition; type: biochemical
T2 sequence (P00797 67-406): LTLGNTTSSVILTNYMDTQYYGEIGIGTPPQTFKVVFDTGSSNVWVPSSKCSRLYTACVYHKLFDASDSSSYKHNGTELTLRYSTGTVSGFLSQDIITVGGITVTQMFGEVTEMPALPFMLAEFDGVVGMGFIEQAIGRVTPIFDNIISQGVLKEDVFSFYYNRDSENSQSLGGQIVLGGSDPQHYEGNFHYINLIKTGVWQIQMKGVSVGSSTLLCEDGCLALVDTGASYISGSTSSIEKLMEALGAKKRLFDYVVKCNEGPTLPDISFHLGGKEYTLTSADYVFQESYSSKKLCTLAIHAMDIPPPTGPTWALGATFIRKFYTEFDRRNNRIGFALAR
Source text: (§1) As BACE1 is a member of aspartyl protease family, its selective inhibition over other closely related proteases is required to avoid possible severe side effects.

BACE2 = target: T3, BACE2 (Homo sapiens, UniProt Q9Y5Z0); test: Enzyme selectivity: BACE2 inhibition; type: biochemical
T3 sequence (Q9Y5Z0 63-518): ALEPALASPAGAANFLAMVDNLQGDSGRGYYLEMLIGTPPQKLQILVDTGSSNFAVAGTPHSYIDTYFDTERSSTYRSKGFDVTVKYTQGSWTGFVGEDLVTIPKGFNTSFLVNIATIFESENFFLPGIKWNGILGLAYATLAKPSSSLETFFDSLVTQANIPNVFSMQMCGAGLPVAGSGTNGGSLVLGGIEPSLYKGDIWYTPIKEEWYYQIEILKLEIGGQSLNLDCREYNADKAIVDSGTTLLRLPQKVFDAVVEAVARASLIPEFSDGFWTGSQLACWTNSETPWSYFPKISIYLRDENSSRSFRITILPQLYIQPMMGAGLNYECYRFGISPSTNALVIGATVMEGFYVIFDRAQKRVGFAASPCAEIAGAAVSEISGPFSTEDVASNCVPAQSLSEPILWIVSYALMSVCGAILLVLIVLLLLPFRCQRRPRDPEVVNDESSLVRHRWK
Source text: as §1

BACE1 [3] = target: T1, BACE1; test: Kinetic analysis of BACE1 inhibition (Dixon plot); type: biochemical; conditions: for Ki: BACE1 substrate 250, 500, 750 nM
Description: The Dixon plot was used to determine the kinetics of 4l, 7c, and 7k inhibiting BACE1.
The Dixon plot is a graphical method (plot of 1/enzyme velocity (1/V) against inhibitor concentration (I)) for determination of the type of enzyme inhibition, which was used to determine the dissociation or inhibition constant (Ki) for the enzyme inhibitor complex. The Dixon plots for BACE1 inhibition were obtained in the presence of various concentrations of BACE1 substrate (250, 500, 750 nM) and the concentrations of 4l, 7c, and 7k as follows: 0.1 µM, 0.5 µM, 1.0 µM. In this way, the inhibition constants (Ki) of 4e were determined by interpretation of Dixon plots, where the value of the x-axis represents −Ki when 1/V = 0. […]
The Dixon plot is a graphical method [plot of 1/enzyme velocity (1/V) against inhibitor
concentration (I)] for determination of the type of enzyme inhibition and was used to determine the
dissociation or inhibition constant (Ki) for the enzyme inhibitor complex (Cornish-Bowden, 1974).
The Dixon plots for BACE1 inhibition were obtained in the presence of various concentrations of […]
BACE1 substrate (250, 500, 750 nM) and the concentrations of 4l, 7c and 7k as follows: 0.1 µM, 0.5 µM,
1.0µM. In this way, the inhibition constants (Ki) of 4e were determined by in terpretation of Dixon
plots, w here t he value of the X -axis represents -Ki when 1/V=0.
Figure 3. Kinetic analysis of 4l.
Figure 4. Kinetic anal ysis of 7k. […]
The BACE1 FRET assay kit was purchased from the PanVera Co. (Invitroge, USA). The assay
was carried out according to the supplied manual with modifications. Briefly, assays were
performed in triplicate in 384-well black plates with a mixture of 5 μL of BACE1 (1.0 U/ml), 5 μL of
the substrate (750 nM, Rh-[…]- Quencherin 50 mM, ammonium bicarbonate), and 5 μL of
compound dissolved in 10% DMSO. The fluorescence intensity was measured with a TECAN
infinite 200 microplate reader for 60 min at 25 °C in the dark. The mixture was irradiated at 544 nm
and the emission intensity recorded at 590 nm. The percent inhibition (%) was obtained by the
following equation: Inhibition % = (1-SS/SC) × 100%, where SC is the slope of fluorescence change of
the control (enzyme, buffer, and substrate) during 60 min, and SS is the slope of fluorescence change
of the tested samples (enzyme, sample solution, and substrate) during 60 min of measurement. […]

BACE1 [4] = target: T1, BACE1; parameters: method as in PMID 31557620; conditions: previous work ref 13; cited from earlier work
[5] = BACE1 FRET assay, 10 μM compound
[6] = HEK293 cells (method text: HEK293T)

T1 sequence (P56817 46-501): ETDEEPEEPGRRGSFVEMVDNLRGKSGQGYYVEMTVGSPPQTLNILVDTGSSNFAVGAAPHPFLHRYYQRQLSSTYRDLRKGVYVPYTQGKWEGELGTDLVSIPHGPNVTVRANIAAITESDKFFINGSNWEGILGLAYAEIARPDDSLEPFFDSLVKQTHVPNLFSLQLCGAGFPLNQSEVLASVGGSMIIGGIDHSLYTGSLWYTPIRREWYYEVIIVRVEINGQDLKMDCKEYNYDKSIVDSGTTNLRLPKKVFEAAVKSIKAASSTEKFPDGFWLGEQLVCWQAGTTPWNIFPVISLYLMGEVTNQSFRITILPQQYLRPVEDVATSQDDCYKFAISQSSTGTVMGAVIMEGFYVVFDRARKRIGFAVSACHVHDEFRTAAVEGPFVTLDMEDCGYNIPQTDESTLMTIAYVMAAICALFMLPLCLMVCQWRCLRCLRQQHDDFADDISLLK

Structure (SMILES)	inhibition at 10 µM (BACE1 [2]; [5]) [%]	IC50 (Renin) [µM]	IC50 (BACE2) [µM]	IC50 (BACE1 [2]; BACE1 FRET assay)	enhancement of BACE1 inhibitory activity compared with the flavone segment 1 or conjugate 3 (BACE1 [2]; from IC50) [fold]	mode of BACE1 inhibition (BACE1 [3])	Ki (BACE1 [3]) [µM]	Aβ levels [1]	Inhibition Rate at 10 μM (%) (BACE1 [2]; BACE1 FRET assay, 10 μM compound, 10 µM)	IC50 at 24 h (MTT cytotoxicity assay; [6]) [µM]	Aβ-42 levels [1]	selectivity on BACE1 over BACE2 and renin (BACE1 [2])	mode of BACE1 inhibition (BACE1 [4])	Aβ-42 level ([1]; 25 µM)	IC50 at 24 h (MTT cytotoxicity assay; HEK293 cells (method text: HEK293T cells)) [µM]
O=c1cc(-c2ccc(O)c(O)c2)oc2cc(O)cc(O)c12 [Compound 1, luteolin]	68.6 ± 8.9							dose-dependently reduced Aβ levels	64.8 ± 6.0	39.8					
O=C(/C=C/c1ccc(O)cc1)OCCOc1cc(O)c2c(=O)cc(-c3ccc(O)c(O)c3)oc2c1 [Compound 3]	64.8 ± 6			2.19 µM and 1.87 µM						62.4			non-competitive inhibitor		
O=C(/C=C/c1cccc(O)c1)OCCOc1cc(O)c2c(=O)cc(-c3ccc(O)c(O)c3)oc2c1 [Compound 7c]	66.7 ± 8.3	> 100	> 100	1.44 ± 0.18 µM		non-competitive inhibitor	1.2					2–3 orders of magnitude		obvious inhibition	90

Further lines, with some results ahead:

inhibition at 10 µM (BACE1 [2]; [5]) [%]	IC50 (Renin) [µM]	IC50 (BACE2) [µM]	IC50 (BACE1 [2]; BACE1 FRET assay)	enhancement of BACE1 inhibitory activity compared with the flavone segment 1 or conjugate 3 (BACE1 [2]; from IC50) [fold]	mode of BACE1 inhibition (BACE1 [3])	Ki (BACE1 [3]) [µM]	Structure (SMILES)	Aβ levels [1]	Inhibition Rate at 10 μM (%) (BACE1 [2]; BACE1 FRET assay, 10 μM compound, 10 µM)	IC50 at 24 h (MTT cytotoxicity assay; [6]) [µM]	Aβ-42 levels [1]	selectivity on BACE1 over BACE2 and renin (BACE1 [2])	mode of BACE1 inhibition (BACE1 [4])	Aβ-42 level ([1]; 25 µM)	IC50 at 24 h (MTT cytotoxicity assay; HEK293 cells (method text: HEK293T cells)) [µM]
54.4 ± 3.5	> 100	> 100	0.15 µM	~10	mix-competitive mode	0.32	O=C(/C=C/c1cccnc1)OCCOc1cc(O)c2c(=O)cc(-c3ccc(O)c(O)c3)oc2c1 [Compound 7k, (E)-2-((2-(3,4-dihydroxyphenyl)-5-hydroxy-4-oxo-4H-chromen-7-yl)oxy)ethyl 3-(pyridin-3-yl)acrylate]	did not reduce Aβ levels		> 100	increased Aβ-42 levels	2–3 orders of magnitude			
28.9 ± 4.4							COc1ccc(/C=C/C(=O)OCCOc2cc(O)c3c(=O)cc(-c4ccc(O)c(O)c4)oc3c2)cc1 [Compound 7i, (E)-2-((2-(3,4-dihydroxyphenyl)-5-hydroxy-4-oxo-4H-chromen-7-yl)oxy)ethyl 3-(4-methoxyphenyl)acrylate]	did not reduce Aβ levels		3.94	increased Aβ-42 levels				
59.5 ± 4.4	25.4	> 100	4.15 ± 1.97 µM				O=C(/C=C/c1ccc(O)cc1)NCCOc1cc(O)c2c(=O)cc(-c3ccc(O)c(O)c3)oc2c1 [Compound 8]			> 100					
58.4 ± 10.2			2.47 ± 0.17 µM		mix-competitive mode	0.8	O=C(/C=C/c1ccc(O)cc1)OCCOc1cccc2c(=O)cc(-c3ccc(O)c(O)c3)oc12 [Compound 4l]								
